Like-named read-outs stand apart in the source and are kept apart here.
Target: α-glucosidase from Saccharomyes cerevisiae (Saccharomyces cerevisiae, UniProt P53341)
Experiment: α-Glucosidase inhibition assay (PNPG substrate, OD 405 nm)
Type: biochemical
Settings: for inhibition at 100 µM: read-out: %Inhibition (100 μM); for inhibitory activity against α-glucosidase, in words: at 100 μM; for inhibition at 50 µM: read-out: %Inhibition (50 μM)
Experimental: The α-glucosidase inhibitory effect was assessed using a previously described method with slight modification. 0.2 U of α-glucosidase from Saccharomyes cerevisiae purchased from Sigma-Aldrich (St. Louis, MO, USA) was diluted to 0.1 M phosphate buffer consisting of Na2HPO4 and NaH2PO4 (pH 6.8). The assay was conducted in a 200 μL reaction system containing 148 μL of the buffer, 25 μL of diluted enzyme solution, and 2 μL of DMSO or sample (dissolved in DMSO). After 20 min of incubation in the 96-well plates at 37 °C, 25 μL of 0.4 mM 4-nitrophenyl-[…]-D-glucopyranoside (PNPG, Aladdin, Shanghai, China) was added as a substrate to start the enzymatic reaction. The plate was incubated for an additional 15 min at 37 °C, followed by the measurement of the optical density (OD). The final concentrations of tested compounds were between 0.39 and 100 μM. The OD was measured at an absorbance wavelength of 405 nm using a Microplate Reader (Tecan, Switzerland).

[1] = α-glucosidase, compound at 100 μM

Chain of α-glucosidase from Saccharomyes cerevisiae (P53341 whole entry): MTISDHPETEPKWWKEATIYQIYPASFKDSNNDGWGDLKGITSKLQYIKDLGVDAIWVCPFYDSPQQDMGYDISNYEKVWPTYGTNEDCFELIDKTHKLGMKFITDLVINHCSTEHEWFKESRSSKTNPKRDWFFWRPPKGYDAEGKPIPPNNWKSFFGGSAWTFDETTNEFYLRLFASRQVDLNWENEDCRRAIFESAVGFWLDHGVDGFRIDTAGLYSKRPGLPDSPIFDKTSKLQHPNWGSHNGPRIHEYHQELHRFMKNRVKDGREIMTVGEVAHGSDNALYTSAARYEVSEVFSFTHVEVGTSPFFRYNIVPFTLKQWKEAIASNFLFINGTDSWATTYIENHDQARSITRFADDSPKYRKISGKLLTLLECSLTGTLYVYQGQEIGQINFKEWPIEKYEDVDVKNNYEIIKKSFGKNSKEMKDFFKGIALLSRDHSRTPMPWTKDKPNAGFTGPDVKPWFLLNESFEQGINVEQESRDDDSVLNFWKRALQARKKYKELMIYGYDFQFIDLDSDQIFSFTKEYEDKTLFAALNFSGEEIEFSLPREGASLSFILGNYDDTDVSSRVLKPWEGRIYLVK

COC(=O)[C@]1(Cc2ccc3c(c2)C[C@H](C(C)(C)O)O3)OC(=O)C(O)=C1c1ccccc1 [Compound 1, Aspernolide N] showed an inhibition at 100 µM [1] of 18.6%.

Molecule CCOC(=O)[C@]1(Cc2ccc3c(c2)C[C@H](C(C)(C)O)O3)OC(=O)C(O)=C1c1ccc(O)cc1 [Compound 2, Aspernolide O] has an inhibition at 100 µM [1] of 23.2%.

In the case of CCOC(=O)[C@]1(Cc2ccc3c(c2)CC(O)C(C)(C)O3)OC(=O)C(O)=C1c1ccc(O)cc1 (stereo partly shown) [Compound 3, Aspernolide P], the inhibition at 100 µM [1] is reported as 26.4%.

In the case of COC(=O)[C@]1(Cc2ccc3c(c2)C[C@H](C(C)(C)O)O3)OC(=O)C(O)=C1c1ccc(O)cc1 [Compound 4, butyrolactone IV], the inhibition at 100 µM is reported as 37.3%.

For COC(=O)[C@]1(Cc2ccc3c(c2)C[C@H](O)C(C)(C)O3)OC(=O)C(O)=C1c1ccc(O)cc1 [Compound 5, butyrolactone V], the “inhibitory activity against α-glucosidase, in words” value was “negligible inhibitory activity” and the inhibition at 100 µM [1] was 21.6%.

In the case of COC(=O)[C@]1(Cc2ccc(O)c(CC=C(C)C)c2)OC(=O)C(O)=C1c1ccc(O)cc1 [Compound 6, butyrolactone I], the inhibition at 50 µM is reported as 89.4% and the inhibition at 100 µM is reported as 100%.

For CCOC(=O)[C@]1(Cc2ccc(O)c(CC=C(C)C)c2)OC(=O)C(O)=C1c1ccc(O)cc1 [Compound 7, butyrolactone VII], the inhibition at 50 µM was 98.7% and the inhibition at 100 µM was 100%.

COC(=O)[C@]1(Cc2ccc3c(c2)CCC(C)(C)O3)OC(=O)C(O)=C1c1ccc(O)cc1 [Compound 8, aspernolide A] was tested, and the “inhibitory activity against α-glucosidase, in words” value was “significant inhibition” and the inhibition at 100 µM was 89.2%.

COC(=O)[C@]1(Cc2ccc3c(c2)C=CC(C)(C)O3)OC(=O)C(O)=C1c1ccc(O)cc1 [Compound 9, aspernolide E] was tested, and the inhibition at 100 µM [1] was 90.4%.
